Experiment: Octanol-water partition coefficient, log P of the compound
Format: physicochemical

SMILES | logP
COC(=O)CN1C(=O)c2c(C)nc3ccccc3c2C1=O | 1.73
COC(=O)CN1C(=O)c2c(C)nc3ccc(F)cc3c2C1=O | 1.87
COC(=O)CN1C(=O)c2c(C)nc3ccc(Br)cc3c2C1=O | 2.53
COC(=O)CN1C(=O)c2c(C)nc3ccc(S(=O)(=O)N4CCOCC4)cc3c2C1=O | 0.404
COC(=O)CCN1C(=O)c2c(C)nc3ccccc3c2C1=O | 1.92
COC(=O)CCN1C(=O)c2c(C)nc3ccc(F)cc3c2C1=O | 2.06
COC(=O)CCN1C(=O)c2c(C)nc3ccc(Br)cc3c2C1=O | 2.71
COC(=O)CCN1C(=O)c2c(C)nc3ccc(S(=O)(=O)N4CCOCC4)cc3c2C1=O | 0.585
Cc1ccccc1N1C(=O)c2c(C)nc3ccccc3c2C1=O | 4.54
Cc1ccccc1N1C(=O)c2c(C)nc3ccc(Br)cc3c2C1=O | 5.33
Cc1ccccc1N1C(=O)c2c(C)nc3ccc(S(=O)(=O)N4CCOCC4)cc3c2C1=O | 3.21
Cc1nc2ccc(Br)cc2c2c1C(=O)N(c1c(C)nn(C)c1C)C2=O | 4.43
Cc1nc2ccc(S(N)(=O)=O)cc2c2c1C(=O)N(c1c(C)nn(C)c1C)C2=O | 2.16
Cc1nc2ccc(S(=O)(=O)NCCO)cc2c2c1C(=O)N(c1c(C)nn(C)c1C)C2=O | 1.96
COCCNS(=O)(=O)c1ccc2nc(C)c3c(c2c1)C(=O)N(c1c(C)nn(C)c1C)C3=O | 2.24
COC(=O)C(Cc1ccccc1)NS(=O)(=O)c1ccc2nc(C)c3c(c2c1)C(=O)N(c1c(C)nn(C)c1C)C3=O (centres undefined) | 4.2
Cc1nc2ccc(S(=O)(=O)N3CCCC3COc3ccccc3)cc2c2c1C(=O)N(c1c(C)nn(C)c1C)C2=O (centres undefined) | 4.67
Cc1nc2ccc(S(=O)(=O)N3CCOCC3)cc2c2c1C(=O)N(c1c(C)nn(C)c1C)C2=O | 2.31
Cc1nc2ccc(C#N)cc2c2c1C(=O)N(c1c(C)nn(C)c1C)C2=O | 3.68
Cc1nc2ccc(F)cc2c2c1C(=O)NC2=O | 2.05
Cc1nc2ccc(Br)cc2c2c1C(=O)NC2=O | 2.71
Cc1nc2ccc(S(=O)(=O)N3CCOCC3)cc2c2c1C(=O)NC2=O | 0.584
Cc1nc2ccc(Br)cc2c2c1C(=O)N(C)C2=O | 2.95
Cc1nc2ccc(S(=O)(=O)N3CCOCC3)cc2c2c1C(=O)N(C)C2=O | 0.83
